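Dose response: 5 concentrations. Exposure: 48 h. Format: 96-well plates. Endpoint: linear interpolation; highest concentration if not reached. Definition used: TGI = concentration required for complete inhibition of growth.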 Some results are limits rather than exact numbers.

What is called TGI is the concentration at which net growth stops. Read a low TGI as more potent growth arrest.

Test in all cases: DTP human tumour cell line panel, 48 h
The test system of assay [1] is A549 NSCLC.
Assay [2] deals with HCT-15 colon.
Assay [3] concerns HOP-62 NSCLC.
Assay [4] relates to K-562 leukemia.
The test system of assay [5] is MOLT-4 leukemia.
The test system of assay [6] is OVCAR-3 ovarian.
The test system of assay [7] is OVCAR-8 ovarian.
Assay [8] deals with SK-OV-3 ovarian.
The subject of assay [9] is SNB-19 CNS.
Assay [10] relates to NCI/ADR-RES ovarian.

Regarding `Cc1ncc([N+](=O)[O-])n1CCN(C)CCCCn1ccnc1[N+](=O)[O-]`, the TGI in assay [1], in assay [2], in assay [3], in assay [4], in [5] and in [6] was greater than 100 µM in each case. For the same compound, the total growth inhibition concentration (TGI) in [7], in assay [8] and in assay [9] was greater than 100 µM each time.

As to `c1cnc2c(c1)-n1cccc1C1(CCOCC1)NN2`, the TGI in assay [1], in [2], in assay [4], in [5], in assay [6] and in [7] was greater than 100 µM each time. Further, the TGI in [8] and in assay [9] was greater than 100 µM each time.

Regarding `O=C(C=P(c1ccccc1)(c1ccccc1)c1ccccc1)C12CC3CC(CC(C3)C1)C2`, the TGI amounted to 36 µM in assay [1]; 26.7 µM in assay [2]; 32.3 µM in assay [3]; 25.2 µM in [4]; 37.6 µM in [10]; 28.5 µM in assay [6]. For the same compound, the TGI worked out at 34.5 µM in assay [7] and 27 µM in [9].

As for `CC(C)(C)C1CC[C@H]2c3c([nH]c4ccc(Br)cc34)[C@H]3C(=O)N(c4ccccc4)C(=O)[C@H]3[C@H]2C1` (stereo partly drawn), the TGI in [1] was greater than 100 µM; in assay [3], greater than 100 µM; in assay [4], greater than 100 µM; in [5], 71.6 µM; in assay [6], greater than 100 µM; in assay [7], 11.8 µM. Further, the figures for the concentration for total growth inhibition (TGI) in [8] and in assay [9] were 40.8 µM and 66.9 µM, respectively.

For `Oc1c(Cl)c2nccnc2c2ccccc12`, the TGI in [1], in assay [2], in assay [4], in [5], in assay [6] and in assay [7] was greater than 100 µM throughout. Further, the TGI in assay [8] was greater than 100 µM.

As to `CS(=O)(=O)NNS(=O)(=O)c1ccc(Br)cc1`, the total growth inhibition concentration (TGI) in [1], in assay [2], in assay [3], in assay [4], in assay [7] and in assay [8] was greater than 100 µM in each case. The TGI in assay [9] was greater than 100 µM.

Turning to `c1ccc2[nH]c(-c3nc4ccccc4o3)nc2c1`, the TGI in assay [1], in assay [2], in [3], in assay [5], in [6] and in assay [7] was greater than 100 µM throughout. Further, the TGI in assay [8] was greater than 100 µM.

In the case of `CC(C)(C)C1CCC2c3c([nH]c4ccccc34)C3C(=O)N(c4cc(Br)cc(Br)c4)C(=O)C3C2C1` (stereo not drawn), the TGI was greater than 100 µM in assay [1]; greater than 100 µM in [2]; 69.6 µM in [3]; 38.2 µM in [5]; 40.8 µM in [10]; 50.2 µM in assay [7]. For the same compound, the concentration for total growth inhibition (TGI) in assay [8] was greater than 100 µM.

For the compound `O=[N+]([O-])/C(C(Cl)=C(Cl)Cl)=C1\Nc2ccccc2O1`, the TGI in assay [1] was greater than 100 µM; in [2] it was greater than 100 µM; in [3] it was greater than 100 µM; in [4], greater than 100 µM; in assay [5], 77.9 µM; in [6], 63.6 µM. Further, the TGI is 63.9 µM in assay [7], greater than 100 µM in assay [8] and greater than 100 µM in [9].

As for `Cc1c2c(n3c(nc4ccccc43)c1C#N)N(c1ccc(Cl)cc1)CC2`, the TGI in assay [1], in assay [2], in assay [3], in assay [4], in assay [10] and in [6] was greater than 100 µM each time. Further, the TGI in [7], in [8] and in assay [9] was greater than 100 µM in each case.

For the compound `COC(=O)C(=O)C(C(=O)C(=O)Nc1ccccc1C(=O)OC)c1nc2ccc(C(=O)c3ccccc3)cc2[nH]c1=O` (stereo not drawn), the TGI in assay [1], in assay [2], in assay [3], in [4], in [10] and in [6] was greater than 100 µM throughout. Moreover, the TGI in assay [7] and in assay [8] was greater than 100 µM in each case.

On to `COc1ccc(-n2sc3ncc(-c4ccccc4)cc3c2=O)cc1`, for which the TGI in assay [1] is greater than 100 µM; in [2], greater than 100 µM; in [3], greater than 100 µM; in assay [10], greater than 100 µM; in assay [6], 47.2 µM; in assay [7], greater than 100 µM. Also, the TGI in [8] was greater than 100 µM; in assay [9], 80.8 µM.

On to `O=C(CCN1CCCCC1CCO)Nc1ccc2c(c1)C(=O)c1ccc(NC(=O)CCN3CCCCC3CCO)cc1C2=O` (stereo not drawn), for which the TGI in assay [1] was 41.1 µM; in assay [2], 24.6 µM; in assay [3], 21.4 µM; in [4], greater than 100 µM; in [5], 39.1 µM; in assay [6] it was 9.03 µM. In addition, the figures for the concentration for total growth inhibition (TGI) in [7], in assay [8] and in assay [9] were 15.1 µM, 22.6 µM and 26.2 µM, respectively.

Turning to `CCCCCCCCCCCCNC(=O)NCC(OCC)OCC`, the TGI in assay [1], in assay [2], in [3], in assay [4], in assay [5] and in [7] was greater than 10 µM throughout. In addition, the TGI in assay [8] and in assay [9] was greater than 10 µM each time.

Consider `C/C(=N\Nc1nc2cc(C)ccc2s1)c1ccccn1`, for which the TGI in assay [1] was greater than 31.6 µM; in assay [2], 30.3 µM; in assay [3], 3.62 µM; in assay [10] it was 0.844 µM; in [7], 12.1 µM; in assay [8] it was 43.1 µM. In [9], this compound gave a TGI of 21.2 µM.

Consider `COC(=O)c1ccc(CN2CCc3c([nH]c4ccccc34)C2CO)o1` (stereo not drawn), for which the TGI in [1], in [2], in assay [3], in [4], in assay [5] and in assay [6] was greater than 10 µM in each case. Moreover, the TGI in assay [7] and in [8] was greater than 10 µM each time.

For `Cc1ccc(N=Nc2c(O)c3ccccc3[nH]c2=O)c(S(=O)(=O)N(C)C)c1`, the TGI in [1], in assay [2], in [3], in [4], in assay [10] and in assay [6] was greater than 100 µM throughout. Moreover, the TGI in assay [7], in assay [8] and in assay [9] was greater than 100 µM throughout.

In the case of `CC(=O)N[C@@H](Cc1ccc(O)cn1)C(=O)NCc1cccc(F)c1`, the TGI in assay [1], in [2], in [3], in [4], in assay [10] and in assay [6] was greater than 100 µM in each case. In addition, the TGI in assay [8] and in assay [9] was greater than 100 µM each time.

Regarding `On1c(-c2ccccc2)c(-c2c(-c3ccccc3)n(O)c3ccccc23)c2ccccc21`, the TGI in [1], in [2], in assay [4], in assay [5], in [6] and in assay [7] was greater than 100 µM throughout. Besides, the TGI in assay [8] was 80.6 µM; in [9] it was greater than 100 µM.

Take `Cc1c(C)c(C)c(-n2c(=O)n(C)c(=O)n2C(C)(C)C)c(C)c1C`: the TGI in assay [1], in assay [2], in assay [4], in assay [5], in assay [6] and in assay [8] was greater than 100 µM in each case. This compound also showed a TGI in [9] greater than 100 µM.

On to `CN(C)[C@@H]1C(=O)C(C(N)=O)=C(O)[C@@]2(O)C(=O)C3=C(O)c4c(O)cccc4C[C@H]3C[C@@H]12`, for which the TGI in [1] was determined as 5.52 µM; in assay [2], 22 µM; in [3], 4.21 µM; in assay [4] it was 6.65 µM; in assay [5], 5.55 µM; in assay [7] it was 9.52 µM. The TGI in assay [8] was 3.96 µM; in assay [9], 4.47 µM.

`COC(=O)/C(=C/c1ccc(OC)cc1)C(C(=O)O)=C(C)C`: the TGI in assay [1], in assay [2], in assay [3], in assay [4], in [5] and in assay [6] was greater than 100 µM in each case. The TGI in [7], in assay [8] and in assay [9] was greater than 100 µM throughout.

Turning to `COc1cc2c(cc1O)[C@H](C)C(c1ccc(Cl)cc1)O2` (stereo partly drawn), the TGI in assay [1] was 98.6 µM; in assay [2], 27.7 µM; in assay [3], 68.2 µM; in [4], 51.7 µM; in assay [5], 40.9 µM; in [6], greater than 100 µM. Also, the TGI in assay [8] and in assay [9] was greater than 100 µM each time.

With `C=CCN1C(=O)CS/C1=N\NC(=O)c1c(C)nc2sccn12`, the TGI in assay [1], in [2], in assay [3], in [4], in [5] and in [6] was greater than 100 µM throughout. For the same compound, the TGI in [7], in [8] and in assay [9] was greater than 100 µM throughout.

Source of the values: PubChem BioAssay (NCI).
